Among the data in ChEMBL document CHEMBL4340578, “11-Aminostrychnine and N-(Strychnine-11-yl)propionamide: Synthesis, Configuration, and Pharmacological Evaluation at Glycine Receptors” (J Nat Prod, 2019) are Ki and IC50 values, retold here.

Assay [1] deals with T1, Glycine receptor subunit alpha-1 (Homo sapiens, UniProt P23415).
T1 sequence (P23415 whole entry): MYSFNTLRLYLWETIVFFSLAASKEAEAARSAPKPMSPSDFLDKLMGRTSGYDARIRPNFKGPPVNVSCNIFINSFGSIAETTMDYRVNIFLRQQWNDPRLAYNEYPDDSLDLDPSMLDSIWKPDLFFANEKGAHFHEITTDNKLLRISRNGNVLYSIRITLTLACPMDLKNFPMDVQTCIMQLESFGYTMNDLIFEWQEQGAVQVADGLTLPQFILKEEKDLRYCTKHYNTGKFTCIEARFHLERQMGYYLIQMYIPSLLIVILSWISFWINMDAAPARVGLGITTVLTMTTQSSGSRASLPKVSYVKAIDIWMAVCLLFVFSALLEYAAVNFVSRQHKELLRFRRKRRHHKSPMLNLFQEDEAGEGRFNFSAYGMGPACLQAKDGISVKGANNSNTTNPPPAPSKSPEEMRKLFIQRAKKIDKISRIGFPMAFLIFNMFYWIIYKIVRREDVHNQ
Briefly: Displacement of [3H]strychnine from human glycine receptor subunit alpha-1 expressed in HEK293 cell membranes. Background: Displacement assays read how much labelled ligand stays bound in the presence of the test substance.

The target of assay [2] is T1, Glycine receptor subunit alpha-1. Briefly: Antagonist activity at human glycine receptor subunit alpha-1 expressed in human tsA201 cells assessed as reduction in glycine-induced response by fluorescence-based FLIPR membrane potential blue assay. Type of assay: cell-based.
In assay [3] the target is T2, Glycine receptor (alpha-1/beta) (Homo sapiens, UniProt P23415+P48167). Briefly: Antagonist activity at human glycine receptor subunit alpha-1beta expressed in human tsA201 cells assessed as reduction in glycine-induced response by fluorescence-based FLIPR membrane potential blue assay. It counts as cell-based.
Assay [4] addresses T2, Glycine receptor (alpha-1/beta). Briefly: Antagonist activity at human glycine receptor subunit alpha-1beta expressed in HEK293 cells assessed as reduction in glycine-induced whole cell currents by patch-clamp technique. Type of assay: cell-based. In general terms: In patch-clamp work, channel activity is measured electrically.
The target of assay [5] is T1, Glycine receptor subunit alpha-1. Briefly: Antagonist activity at human glycine receptor subunit alpha-1 expressed in HEK293 cells assessed as reduction in glycine-induced whole cell currents by patch-clamp technique. Type of assay: cell-based.

T2 sequence (P48167 whole entry, one chain of several): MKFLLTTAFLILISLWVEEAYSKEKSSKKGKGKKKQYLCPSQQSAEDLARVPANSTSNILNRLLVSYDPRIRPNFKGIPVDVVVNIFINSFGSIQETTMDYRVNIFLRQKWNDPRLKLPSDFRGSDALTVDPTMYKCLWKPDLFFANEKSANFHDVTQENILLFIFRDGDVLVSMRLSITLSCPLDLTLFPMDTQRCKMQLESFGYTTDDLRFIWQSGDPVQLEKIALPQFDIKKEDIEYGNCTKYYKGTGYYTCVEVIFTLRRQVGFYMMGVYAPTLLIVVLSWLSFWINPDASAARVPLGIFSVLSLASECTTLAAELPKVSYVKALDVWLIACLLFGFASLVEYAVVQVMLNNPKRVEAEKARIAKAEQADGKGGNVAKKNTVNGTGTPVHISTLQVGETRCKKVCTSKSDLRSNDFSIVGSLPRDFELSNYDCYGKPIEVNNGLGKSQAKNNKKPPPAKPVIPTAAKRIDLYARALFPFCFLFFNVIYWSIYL

By Ki is commonly meant a measure of affinity in units of concentration, obtained from inhibition or displacement. Broadly, the IC50 is the midpoint of a concentration-inhibition curve. In assay [1], `CCC(=O)N[C@@H]1C(=O)N2c3ccccc3[C@@]34CCN5CC6=CCO[C@@H]1[C@@H]([C@H]23)[C@H]6C[C@H]54` registered an inhibition constant (Ki) of 91 nM. Besides, the IC50 in assay [2] came to 710 nM; in assay [3], 2200 nM; in assay [4], 147 nM; in assay [5], 173 nM.

As for `O=C1C[C@@H]2OCC=C3CN4CC[C@]56c7ccccc7N1[C@H]5[C@H]2[C@H]3C[C@H]46` [STRYCHNINE], the inhibition constant (Ki) in assay [1] was 123 nM. Moreover, the IC50 in assay [2] amounted to 150 nM; in assay [3] it was 510 nM.

`N[C@@H]1C(=O)N2c3ccccc3[C@@]34CCN5CC6=CCO[C@@H]1[C@@H]([C@H]23)[C@H]6C[C@H]54` yielded a Ki in assay [1] of 741 nM. In addition, the IC50 worked out at 1000 nM in assay [2], 7700 nM in assay [3] and 194 nM in assay [5].
